pKi: −log10 of the molar value.
Target: T1, JAK3 (Homo sapiens, UniProt P52333)
T1 sequence (P52333 1-1124): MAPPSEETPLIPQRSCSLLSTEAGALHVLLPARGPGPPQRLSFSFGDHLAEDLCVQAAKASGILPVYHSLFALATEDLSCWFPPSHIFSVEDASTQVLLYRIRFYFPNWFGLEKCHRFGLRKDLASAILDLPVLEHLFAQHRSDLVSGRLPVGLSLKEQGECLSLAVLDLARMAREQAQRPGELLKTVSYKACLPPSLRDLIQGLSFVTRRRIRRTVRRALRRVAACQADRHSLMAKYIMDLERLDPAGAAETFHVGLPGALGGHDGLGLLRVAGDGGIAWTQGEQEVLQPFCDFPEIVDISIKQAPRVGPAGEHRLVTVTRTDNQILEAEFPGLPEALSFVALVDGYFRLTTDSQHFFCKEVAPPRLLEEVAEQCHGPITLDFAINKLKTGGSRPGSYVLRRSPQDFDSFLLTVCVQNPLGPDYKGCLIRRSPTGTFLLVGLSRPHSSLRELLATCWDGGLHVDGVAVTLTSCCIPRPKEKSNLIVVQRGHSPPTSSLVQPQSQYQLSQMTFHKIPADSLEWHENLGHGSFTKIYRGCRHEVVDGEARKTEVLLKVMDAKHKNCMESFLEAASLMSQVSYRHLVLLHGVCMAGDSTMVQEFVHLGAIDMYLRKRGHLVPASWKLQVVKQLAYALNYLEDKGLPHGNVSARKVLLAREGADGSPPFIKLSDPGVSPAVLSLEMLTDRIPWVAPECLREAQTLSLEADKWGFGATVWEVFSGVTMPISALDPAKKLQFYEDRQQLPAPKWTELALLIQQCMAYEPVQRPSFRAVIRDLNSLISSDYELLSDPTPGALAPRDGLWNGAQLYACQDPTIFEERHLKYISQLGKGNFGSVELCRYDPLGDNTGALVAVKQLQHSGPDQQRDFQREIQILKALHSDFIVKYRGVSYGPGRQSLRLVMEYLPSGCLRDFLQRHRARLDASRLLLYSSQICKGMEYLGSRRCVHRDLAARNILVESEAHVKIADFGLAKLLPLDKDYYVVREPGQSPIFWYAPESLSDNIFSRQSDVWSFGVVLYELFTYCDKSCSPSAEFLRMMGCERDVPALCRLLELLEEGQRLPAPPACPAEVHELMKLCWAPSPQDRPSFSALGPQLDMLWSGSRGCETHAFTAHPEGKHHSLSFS
Assay: JAK3 inhibition assay (ELISA, Poly (Glu, Ala, Tyr) coated plates)
Assay type: biochemical
Settings: 2 mM ATP, 60 minutes at 30° C.
In short: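 ELISA on Poly(Glu,Ala,Tyr) 6:3:1-coated plates with 2 mM ATP and 5 mM MgCl2. JAK enzyme started the reaction, run 60 min at 30° C. Phosphotyrosine was detected with HRP-conjugated 4G10 antibody and TMB, read at 450 nm, and IC50 was derived from optical densities.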

With CN1CCN(C(=O)[C@H]2C[C@H]2c2cnc3[nH]cc(-c4oncc4-c4cccc(F)c4F)c3c2)CC1 (relative stereo) [Compound 143, cis-(2-{3-[4-(2,3-Difluoro-phenyl)-isoxazol-5-yl]-1H-pyrrolo[2,3-b]pyridin-5-yl}-cyclopropyl)-(4-methyl-piperazin-1-yl)-methanone] the pKi was 4.90 to 6.00.

Work on Clc1cccc(-c2cnoc2-c2c[nH]c3ncccc23)c1Cl [Compound 2, 3-[4-(2,3-Dichloro-phenyl)-isoxazol-5-yl]-1H-pyrrolo[2,3-b]pyridine] yielded a pKi of 6.00 to 6.70.

With Fc1cccc(Cc2cnoc2-c2c[nH]c3ncccc23)c1F [Compound 36, 3-[4-(2,3-Difluoro-benzyl)-isoxazol-5-yl]-1H-pyrrolo[2,3-b]pyridine] the pKi was 4.90 to 6.00.

In the case of Fc1cccc(-c2cnoc2-c2c[nH]c3ncc(Br)cc23)c1F [Compound 37, 5-Bromo-3-[4-(2,3-difluoro-phenyl)-isoxazol-5-yl]-1H-pyrrolo[2,3-b]pyridine], the pKi was > 6.70.

Fc1c(Cl)cccc1-c1cnoc1-c1c[nH]c2ncccc12 [Compound 42, 3-[4-(3-Chloro-2-fluoro-phenyl)-isoxazol-5-yl]-1H-pyrrolo[2,3-b]pyridine] was tested, and the pKi was 6.00 to 6.70.

In the case of c1cnc2[nH]cc(-c3oncc3C3CCCCC3)c2c1 [Compound 47, 3-(4-Cyclohexyl-isoxazol-5-yl)-1H-pyrrolo[2,3-b]pyridine], the pKi was 6.00 to 6.70.

CN(C)c1ccnc2[nH]cc(-c3oncc3-c3cccc(F)c3F)c12 [Compound 56, {3-[4-(2,3-Difluoro-phenyl)-isoxazol-5-yl]-1H-pyrrolo[2,3-b]pyridin-4-yl}-dimethyl-amine] showed a pKi of 6.00 to 6.70.

Fc1cccc(-c2cnoc2-c2c[nH]c3ncc(-c4ccccc4)cc23)c1F [Compound 58, 3-[4-(2,3-Difluoro-phenyl)-isoxazol-5-yl]-5-phenyl-1H-pyrrolo[2,3-b]pyridine] was tested, and the pKi was > 6.70.

Compound CC(=O)N1CCC(c2cnc3[nH]cc(-c4oncc4-c4cccc(F)c4F)c3c2)CC1 [Compound 63, 1-(4-{3-[4-(2,3-Difluoro-phenyl)-isoxazol-5-yl]-1H-pyrrolo[2,3-b]pyridin-5-yl}-piperidin-1-yl)-ethanone] has a pKi of 6.00 to 6.70.

In the case of N#CCC(=O)N1CCC(c2cnc3[nH]cc(-c4oncc4-c4cccc(F)c4F)c3c2)CC1 [Compound 64, 3-(4-{3-[4-(2,3-Difluoro-phenyl)-isoxazol-5-yl]-1H-pyrrolo[2,3-b]pyridin-5-yl}-piperidin-1-yl)-3-oxo-propionitrile], the pKi was 6.00 to 6.70.

In the case of C=Cc1cnc2[nH]cc(-c3oncc3-c3cccc(F)c3F)c2c1 [Compound 66, 3-[4-(2,3-Difluoro-phenyl)-isoxazol-5-yl]-5-vinyl-1H-pyrrolo[2,3-b]pyridine], the pKi was > 6.70.

Compound Fc1cccnc1-c1cnc2[nH]cc(-c3oncc3-c3cccc(F)c3F)c2c1 [Compound 74, 3-[4-(2,3-Difluoro-phenyl)-isoxazol-5-yl]-5-(3-fluoro-pyridin-2-yl)-1H-pyrrolo[2,3-b]pyridine] has a pKi of 6.00 to 6.70.

Fc1cccc(-c2cnoc2-c2c[nH]c3ncc(-c4ncccn4)cc23)c1F [Compound 75, 3-[4-(2,3-Difluoro-phenyl)-isoxazol-5-yl]-5-pyrimidin-2-yl-1H-pyrrolo[2,3-b]pyridine] was tested, and the pKi was > 6.70.

For CN(C)C(=O)c1ccc(-c2cnc3[nH]cc(-c4oncc4-c4cccc(F)c4F)c3c2)nc1 [Compound 79, 6-{3-[4-(2,3-Difluoro-phenyl)-isoxazol-5-yl]-1H-pyrrolo [2,3-b]pyridin-5-yl}-N,N-dimethyl-nicotinamide], the pKi was > 6.70.

Compound CN(C)c1ccnc(-c2cnc3[nH]cc(-c4oncc4-c4cccc(F)c4F)c3c2)c1 [Compound 80, (2-{3-[4-(2,3-Difluoro-phenyl)-isoxazol-5-yl]-1H-pyrrolo[2,3-b]pyridin-5-yl}-pyridin-4-yl)-dimethyl-amine] has a pKi of 4.90 to 6.00.

With CN(C)Cc1cc(Cl)nc(-c2cnc3[nH]cc(-c4oncc4-c4cccc(F)c4F)c3c2)c1 [Compound 81, (2-Chloro-6-{3-[4-(2,3-difluoro-phenyl)-isoxazol-5-yl]-1H-pyrrolo[2,3-b]pyridin-5-yl}-pyridin-4-ylmethyl)-dimethyl-amine] the pKi was 6.00 to 6.70.

CS(=O)(=O)n1ccc2cc(-c3cnc4[nH]cc(-c5oncc5-c5cccc(F)c5F)c4c3)cnc21 [Compound 97, 3′-[4-(2,3-Difluoro-phenyl)-isoxazol-5-yl]-1-methanesulfonyl-1H, 1′H-[5,5′]bi[pyrrolo[2,3-b]pyridinyl]] gave a pKi of 6.00 to 6.70.

CS(=O)(=O)Nc1ccc(-c2cnc3[nH]cc(-c4oncc4-c4cccc(F)c4F)c3c2)cc1 [Compound 98, N-(4-{3-[4-(2,3-Difluoro-phenyl)-isoxazol-5-yl]-1H-pyrrolo[2,3-b]pyridin-5-yl}-phenyl)-methane sulfonamide] was tested, and the pKi was > 6.70.

Compound CNc1ccc2c(-c3oncc3-c3cccc(F)c3F)c[nH]c2n1 [Compound 102, {3-[4-(2,3-Difluoro-phenyl)-isoxazol-5-yl]-1H-pyrrolo[2,3-b]pyridin-6-yl}-methyl-amine] has a pKi of 4.90 to 6.00.

With Fc1cccc(-c2cnoc2-c2c[nH]c3ncc(/C=C/n4cncn4)cc23)c1F [Compound 133, 3-[4-(2,3-Difluoro-phenyl)-isoxazol-5-yl]-5-(2-[1,2,4]triazol-1-yl-vinyl)-1H-pyrrolo[2,3-b]pyridine] the pKi was > 6.70.

Cc1noc(-c2c[nH]c3ncccc23)c1-c1cccc(F)c1F [Compound 134, 3-[4-(2,3-Difluoro-phenyl)-3-methyl-isoxazol-5-yl]-1H-pyrrolo[2,3-b]pyridine] was tested, and the pKi was 6.00 to 6.70.

O=c1[nH]ccc2c(-c3oncc3-c3cccc(F)c3F)c[nH]c12 [Compound 145, 3-[4-(2,3-Difluoro-phenyl)-isoxazol-5-yl]-1,6-dihydro-pyrrolo[2,3-c]pyridin-7-one] gave a pKi of 6.00 to 6.70.

Nc1[nH]c2ncccc2c1-c1oncc1-c1cccc(F)c1F [Compound 152] was tested, and the pKi was 4.90 to 6.00.

Source: patent US7446199B2, “Compositions useful as inhibitors of protein kinases” (Vertex Pharmaceuticals Incorporated, priority 2003, dated 2008)
